Laboratory results as given in PubChem BioAssay (NCI).
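Method: 48-hour compound exposure of cells in 96-well plates, five concentrations, linear interpolation of endpoints. Definition used: TGI = concentration required for complete inhibition of growth.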

Experiments:
Assay in all cases: DTP human tumour cell line panel, 48 h
786-0 renal = system: 786-0 renal
A498 renal = system: A498 renal
A549 NSCLC = system: A549 NSCLC
ACHN renal = system: ACHN renal
BT-549 breast = system: BT-549 breast
CAKI-1 renal = system: CAKI-1 renal
CCRF-CEM leukemia = system: CCRF-CEM leukemia
COLO 205 colon = system: COLO 205 colon
DU-145 prostate = system: DU-145 prostate
EKVX NSCLC = system: EKVX NSCLC
HCC-2998 colon = system: HCC-2998 colon
HCT-116 colon = system: HCT-116 colon
HCT-15 colon = system: HCT-15 colon
HL-60(TB) leukemia = system: HL-60(TB) leukemia
HOP-62 NSCLC = system: HOP-62 NSCLC
HS 578T breast = system: HS 578T breast
HT29 colon = system: HT29 colon
IGROV1 ovarian = system: IGROV1 ovarian
K-562 leukemia = system: K-562 leukemia
KM12 colon = system: KM12 colon
LOX IMVI melanoma = system: LOX IMVI melanoma
M14 melanoma = system: M14 melanoma
MALME-3M melanoma = system: MALME-3M melanoma
MCF7 breast = system: MCF7 breast
MDA-MB-231 breast = system: MDA-MB-231 breast
MDA-MB-435 = system: MDA-MB-435
MDA-N = system: MDA-N
MOLT-4 leukemia = system: MOLT-4 leukemia
NCI-H226 lung = system: NCI-H226 lung
NCI-H23 lung = system: NCI-H23 lung
NCI-H460 lung = system: NCI-H460 lung
NCI-H522 lung = system: NCI-H522 lung
NCI/ADR-RES ovarian = system: NCI/ADR-RES ovarian
OVCAR-3 ovarian = system: OVCAR-3 ovarian
OVCAR-4 ovarian = system: OVCAR-4 ovarian
OVCAR-5 ovarian = system: OVCAR-5 ovarian
OVCAR-8 ovarian = system: OVCAR-8 ovarian
PC-3 prostate = system: PC-3 prostate
RPMI-8226 leukemia = system: RPMI-8226 leukemia
RXF 393 renal = system: RXF 393 renal
SF-268 CNS = system: SF-268 CNS
SF-295 CNS = system: SF-295 CNS
SF-539 CNS = system: SF-539 CNS
SK-MEL-2 melanoma = system: SK-MEL-2 melanoma
SK-MEL-28 melanoma = system: SK-MEL-28 melanoma
SK-OV-3 ovarian = system: SK-OV-3 ovarian
SN12C renal = system: SN12C renal
SNB-19 CNS = system: SNB-19 CNS
SNB-75 CNS = system: SNB-75 CNS
SW-620 colon = system: SW-620 colon
T-47D breast = system: T-47D breast
TK-10 renal = system: TK-10 renal
U251 CNS = system: U251 CNS
UACC-257 melanoma = system: UACC-257 melanoma
UACC-62 melanoma = system: UACC-62 melanoma
HOP-92 NSCLC = system: HOP-92 NSCLC
SK-MEL-5 melanoma = system: SK-MEL-5 melanoma
UO-31 renal = system: UO-31 renal

Structure (SMILES): O=C(N/N=C(/COc1ccccc1)N=Cc1cccnc1)c1ccncc1
- TGI (786-0 renal): > 100 µM
- TGI (A498 renal): > 100 µM
- TGI (A549 NSCLC): > 100 µM
- TGI (ACHN renal): > 100 µM
- TGI (BT-549 breast): > 100 µM
- TGI (CAKI-1 renal): > 100 µM
- TGI (CCRF-CEM leukemia): > 100 µM
- TGI (COLO 205 colon): > 100 µM
- TGI (DU-145 prostate): > 100 µM
- TGI (EKVX NSCLC): > 100 µM
- TGI (HCC-2998 colon): > 100 µM
- TGI (HCT-116 colon): > 100 µM
- TGI (HCT-15 colon): > 100 µM
- TGI (HL-60(TB) leukemia): > 100 µM
- TGI (HOP-62 NSCLC): > 100 µM
- TGI (HS 578T breast): > 100 µM
- TGI (HT29 colon): > 100 µM
- TGI (IGROV1 ovarian): > 100 µM
- TGI (K-562 leukemia): > 100 µM
- TGI (KM12 colon): > 100 µM
- TGI (LOX IMVI melanoma): > 100 µM
- TGI (M14 melanoma): > 100 µM
- TGI (MALME-3M melanoma): > 100 µM
- TGI (MCF7 breast): > 100 µM
- TGI (MDA-MB-231 breast): > 100 µM
- TGI (MDA-MB-435): > 100 µM
- TGI (MDA-N): > 100 µM
- TGI (MOLT-4 leukemia): > 100 µM
- TGI (NCI-H226 lung): > 100 µM
- TGI (NCI-H23 lung): > 100 µM
- TGI (NCI-H460 lung): > 100 µM
- TGI (NCI-H522 lung): > 100 µM
- TGI (NCI/ADR-RES ovarian): > 100 µM
- TGI (OVCAR-3 ovarian): > 100 µM
- TGI (OVCAR-4 ovarian): > 100 µM
- TGI (OVCAR-5 ovarian): > 100 µM
- TGI (OVCAR-8 ovarian): > 100 µM
- TGI (PC-3 prostate): > 100 µM
- TGI (RPMI-8226 leukemia): > 100 µM
- TGI (RXF 393 renal): > 100 µM
- TGI (SF-268 CNS): > 100 µM
- TGI (SF-295 CNS): > 100 µM
- TGI (SF-539 CNS): > 100 µM
- TGI (SK-MEL-2 melanoma): > 100 µM
- TGI (SK-MEL-28 melanoma): > 100 µM
- TGI (SK-OV-3 ovarian): > 100 µM
- TGI (SN12C renal): > 100 µM
- TGI (SNB-19 CNS): > 100 µM
- TGI (SNB-75 CNS): > 100 µM
- TGI (SW-620 colon): > 100 µM
- TGI (T-47D breast): > 100 µM
- TGI (TK-10 renal): > 100 µM
- TGI (U251 CNS): > 100 µM
- TGI (UACC-257 melanoma): > 100 µM
- TGI (UACC-62 melanoma): > 100 µM

Structure (SMILES): COc1ccc(-c2oc3c(OC)c(OC)cc(O)c3c(=O)c2OC)cc1
- TGI (786-0 renal): > 100 µM
- TGI (A498 renal): > 100 µM
- TGI (A549 NSCLC): > 100 µM
- TGI (ACHN renal): > 100 µM
- TGI (BT-549 breast): > 100 µM
- TGI (CAKI-1 renal): > 100 µM
- TGI (CCRF-CEM leukemia): > 100 µM
- TGI (COLO 205 colon): > 100 µM
- TGI (DU-145 prostate): > 100 µM
- TGI (EKVX NSCLC): > 100 µM
- TGI (HCC-2998 colon): > 100 µM
- TGI (HCT-116 colon): > 100 µM
- TGI (HCT-15 colon): > 100 µM
- TGI (HL-60(TB) leukemia): > 100 µM
- TGI (HOP-62 NSCLC): > 100 µM
- TGI (HOP-92 NSCLC): > 100 µM
- TGI (HS 578T breast): > 100 µM
- TGI (HT29 colon): > 100 µM
- TGI (IGROV1 ovarian): > 100 µM
- TGI (K-562 leukemia): > 100 µM
- TGI (KM12 colon): > 100 µM
- TGI (LOX IMVI melanoma): > 100 µM
- TGI (M14 melanoma): > 100 µM
- TGI (MALME-3M melanoma): > 100 µM
- TGI (MCF7 breast): > 100 µM
- TGI (MDA-MB-231 breast): > 100 µM
- TGI (MDA-MB-435): > 100 µM
- TGI (MDA-N): > 100 µM
- TGI (MOLT-4 leukemia): > 100 µM
- TGI (NCI-H226 lung): > 100 µM
- TGI (NCI-H23 lung): > 100 µM
- TGI (NCI-H460 lung): > 100 µM
- TGI (NCI-H522 lung): > 100 µM
- TGI (NCI/ADR-RES ovarian): > 100 µM
- TGI (OVCAR-3 ovarian): > 100 µM
- TGI (OVCAR-4 ovarian): > 100 µM
- TGI (OVCAR-5 ovarian): > 100 µM
- TGI (OVCAR-8 ovarian): > 100 µM
- TGI (RXF 393 renal): > 100 µM
- TGI (SF-268 CNS): > 100 µM
- TGI (SF-295 CNS): > 100 µM
- TGI (SF-539 CNS): 72.5 µM
- TGI (SK-MEL-2 melanoma): > 100 µM
- TGI (SK-MEL-28 melanoma): > 100 µM
- TGI (SK-MEL-5 melanoma): > 100 µM
- TGI (SK-OV-3 ovarian): > 100 µM
- TGI (SN12C renal): > 100 µM
- TGI (SNB-19 CNS): > 100 µM
- TGI (SW-620 colon): > 100 µM
- TGI (T-47D breast): > 100 µM
- TGI (TK-10 renal): > 100 µM
- TGI (U251 CNS): > 100 µM
- TGI (UACC-257 melanoma): > 100 µM
- TGI (UACC-62 melanoma): > 100 µM
- TGI (UO-31 renal): > 100 µM

Structure (SMILES): O=C(c1ccc(Cl)cc1)N(C(=S)OCCOc1ccccc1)c1ccccc1
- TGI (786-0 renal): 40.1 µM
- TGI (A498 renal): 48 µM
- TGI (A549 NSCLC): 39.3 µM
- TGI (ACHN renal): 47.9 µM
- TGI (BT-549 breast): 52.3 µM
- TGI (CAKI-1 renal): 41.2 µM
- TGI (CCRF-CEM leukemia): 42.7 µM
- TGI (COLO 205 colon): 37.1 µM
- TGI (DU-145 prostate): 31.7 µM
- TGI (EKVX NSCLC): 48.6 µM
- TGI (HCC-2998 colon): 35.2 µM
- TGI (HCT-116 colon): 30.9 µM
- TGI (HCT-15 colon): 42.2 µM
- TGI (HL-60(TB) leukemia): 38.6 µM
- TGI (HOP-62 NSCLC): 54 µM
- TGI (HOP-92 NSCLC): 30.7 µM
- TGI (HS 578T breast): > 100 µM
- TGI (HT29 colon): 35.6 µM
- TGI (IGROV1 ovarian): 38.1 µM
- TGI (K-562 leukemia): > 100 µM
- TGI (KM12 colon): 39.4 µM
- TGI (LOX IMVI melanoma): 36.1 µM
- TGI (M14 melanoma): 32.4 µM
- TGI (MALME-3M melanoma): 70.7 µM
- TGI (MCF7 breast): 32.4 µM
- TGI (MDA-MB-231 breast): 75.6 µM
- TGI (MDA-MB-435): 30.7 µM
- TGI (MDA-N): 33.3 µM
- TGI (MOLT-4 leukemia): 59.8 µM
- TGI (NCI-H23 lung): 36.2 µM
- TGI (NCI-H460 lung): 62.7 µM
- TGI (NCI-H522 lung): 43.7 µM
- TGI (NCI/ADR-RES ovarian): 76.3 µM
- TGI (OVCAR-3 ovarian): 30.9 µM
- TGI (OVCAR-4 ovarian): 40.8 µM
- TGI (OVCAR-5 ovarian): 36.4 µM
- TGI (OVCAR-8 ovarian): 48.3 µM
- TGI (PC-3 prostate): 56.7 µM
- TGI (RPMI-8226 leukemia): 44.1 µM
- TGI (RXF 393 renal): 39.3 µM
- TGI (SF-268 CNS): 60.4 µM
- TGI (SF-295 CNS): 94 µM
- TGI (SF-539 CNS): 34 µM
- TGI (SK-MEL-2 melanoma): 45.7 µM
- TGI (SK-MEL-28 melanoma): 34.9 µM
- TGI (SK-OV-3 ovarian): > 100 µM
- TGI (SN12C renal): 39.3 µM
- TGI (SNB-19 CNS): 42.8 µM
- TGI (SW-620 colon): 41.2 µM
- TGI (T-47D breast): 56.5 µM
- TGI (TK-10 renal): > 100 µM
- TGI (U251 CNS): 29.7 µM
- TGI (UACC-257 melanoma): 39.5 µM
- TGI (UACC-62 melanoma): 35.1 µM
- TGI (UO-31 renal): 3.12 µM
